Measurements: US11098016B2, “Indazole derivatives useful as glucagon receptor antagonists” (JANSSEN PHARMACEUTICA NV, priority 2016, dated 2021)

target: T1, human GCGR (Homo sapiens, UniProt P47871); test: Cellular functional assay, cAMP readout: inhibition of glucagon stimulated cAMP; assay type: cell-based; conditions: not given
T1 construct: expressed in transfected cells; host or cells: HEK293 (hGluc-1HEK), pcDNA3.1, G418 selection
Method: IC50 Values in Cellular Functional Assays: cAMP Readout
Full-length human GCGR (Accession Number: NM000160) subcloned into pcDNA3.1 was stably transfected into HEK293 cells (hGluc-1HEK) and maintained under G418 selection (500 μg/mL). Cell cultures were maintained in DMEM/F12 media supplemented with 10% FBS and 1% GlutaMax™ Supplement (Available from ThermoFisher Scientific, catalog #35050061). Glucagon stimulated cAMP was quantified using LANCE technology as per manufacturer instructions. On the day of the experiment, spent media was removed and cells were washed with Hank's Buffered Saline solution (HBSS), and cells harvested with non-enzymatic cell dissociation solution, then washed once with HBSS. Cells were re-suspended in stimulation buffer at a concentration of 0.83×10^6 cells/ml and cAMP detection antibody was added. 6 μl/well of this solution was then dispensed in a 384 well plate (cell density 5000 cells/well). Test compound was serially diluted in DMSO and 50 nl were dispensed on top of the cell solution and allowed to incubate for 30 minutes. 6 μl of a 2× glucagon solution (final concentration in assay 100 pM) was then added and the reaction was terminated after 5 minutes with the addition of detection mix. The resulting mixture was incubated, protected from light for 1.5 h. cAMP levels were quantified by TR-FRET in an EnVision instrument against a known standard. IC50's were generated by using a non-linear regression macro driven in Excel and converted to Ki values.

T1 sequence (P47871 26-477): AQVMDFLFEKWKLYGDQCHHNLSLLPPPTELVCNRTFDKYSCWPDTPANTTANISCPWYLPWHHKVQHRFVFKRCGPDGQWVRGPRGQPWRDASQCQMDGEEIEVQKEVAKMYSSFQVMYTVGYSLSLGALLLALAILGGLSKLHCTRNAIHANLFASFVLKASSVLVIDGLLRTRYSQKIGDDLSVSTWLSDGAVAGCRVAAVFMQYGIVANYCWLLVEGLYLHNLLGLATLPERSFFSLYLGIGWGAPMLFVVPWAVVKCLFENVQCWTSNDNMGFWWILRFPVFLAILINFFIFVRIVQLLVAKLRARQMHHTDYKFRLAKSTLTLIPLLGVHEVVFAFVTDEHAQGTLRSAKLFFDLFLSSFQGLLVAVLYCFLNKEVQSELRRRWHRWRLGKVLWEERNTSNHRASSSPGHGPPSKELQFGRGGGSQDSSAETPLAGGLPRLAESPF

SMILES | Ki
O=C(O)CCNC(=O)c1ccc(C(CCc2ccccc2)n2cc3cc(-c4ccc(C(F)(F)F)cc4)ccc3n2)cc1 (stereo not shown) [Compound 104] | 145 nM
O=C(O)CCNC(=O)c1ccc(C(CCc2ccccc2)n2ncc3cc(-c4ccc(C(F)(F)F)cc4)ccc32)cc1 (stereo not shown) [Compound 142] | 850 nM
Cc1cc(Cl)ccc1-c1ccc2nn(C(CCC3CCCCC3)c3ccc(C(=O)NCCC(=O)O)nc3)cc2c1 (stereo not shown) [Compound 184] | 71 nM
O=C(O)CCNC(=O)c1ccc(C(CCC2CCCCC2)n2cc3cc(-c4ccc(C(F)(F)F)cc4)ccc3n2)cn1 (stereo not shown) [Compound 186] | 275 nM
COCCC(c1ccc(C(=O)NCCC(=O)O)cc1)n1cc2cc(-c3ccc(C(F)(F)F)cc3)ccc2n1 (stereo not shown) [Compound 202] | 1100 nM

More lines, now with the values ahead:

Ki | SMILES
285 nM | CC(C)CC(c1ccc(CNCCC(=O)O)cc1)n1ncc2cc(-c3ccc(OC(F)(F)F)cc3)ccc21 (stereo not shown) [Compound 10, 3-((4-(3-Methyl-1-(5-(4-(trifluoromethoxy)phenyl)-1H-indazol-1-yl)butyl)benzyl)amino)propanoic Acid]
650 nM | COc1ccc(-c2ccc3c(cnn3C(CC(C)C)c3ccc(CNCCC(=O)O)cc3)c2)cc1 (stereo not shown) [Compound 38, 3-((4-(1-(5-(4-Methoxyphenyl)-1H-indazol-1-yl)-3-methylbutyl)benzyl)amino)propanoic Acid]
85 nM | Cc1cc(C(F)(F)F)ccc1-c1ccc2c(cnn2C(CC(C)C)c2ccc(CNCCC(=O)O)cc2)c1 (stereo not shown) [Compound 84, 3-((4-(3-Methyl-1-(5-(2-methyl-4-(trifluoromethyl)phenyl)-1H-indazol-1-yl)butyl)benzyl)amino)propanoic Acid]
2250 nM | CC(C)CC(c1ccc(CNCCC(=O)O)cc1)n1ncc2cc(-c3cc(Cl)cc(Cl)c3)ccc21 (stereo not shown) [Compound 118, 3-((4-(1-(5-(3,5-Dichlorophenyl)-1H-indazol-1-yl)-3-methylbutyl)benzyl)amino)propanoic Acid]

tested on: glucagon receptor; test: Glucagon challenge in vivo assay measuring blood glucose (normal dog glucagon challenge test); conditions: male beagle dogs; 10 mg/kg oral gavage
Method: Glucagon Challenge In Vivo Assay Measuring Blood Glucose
The efficacy of a glucagon receptor antagonist was evaluated using a normal dog glucagon challenge test. Male beagle dogs were overnight fasted prior to the study. Test compound (at 3 mg/kg and 10 mg/kg for Compound #196 and at 10 mg/kg for Compounds #180, #248 and #253) or vehicle (0.5% hydroxypropyl methylcellulose) was dosed via oral gavage. Ninety minutes later, the dogs (1.5 years old, ˜9 Kg) were submitted to a glucagon challenge test by a single intramuscular injection of glucagon (Glucagon, rDNA origin, Eli Lilly, Indianapolis, Ind.) at dose of […]. Blood glucose levels were determined at times −10 min, 0 min (on challenge), 10 min, 20 min, 30 min, and 60 min after glucagon injection.

SMILES | blood glucose levels during glucagon challenge time compared with vehicle treated group
Cc1c(-c2ccc(C(F)(F)F)cc2Cl)ccc2nn([C@@H](CC(C)C)c3ccc(C(=O)NCCC(=O)O)cc3)cc12 [Compound 180, 3-[[4-[(1S)-1-[5-[2-Chloro-4-(trifluoromethyl)phenyl]-4-methyl-indazol-2-yl]-3-methyl-butyl]benzoyl]amino]propanoic Acid] | markedly reduced blood glucose levels
